In patent US10596137B2, “Medium chain fatty acids and their triglycerides for treating anxiety” (NESTEC S.A., priority 2015, dated 2020):
Entries after “also recorded” stand apart in the source; their conditions may differ.

Experiment: Temporal dynamics of plasma and brain ketones after octanoic or decanoic acid ingestion
Assay type: in vivo, rat
Conditions: after ingestion (oral gavage); for plasma and brain β-HB (ketone) levels: kinetics
Experimental: Blood was drawn from the tail vein 7 days after initiation of treatment and trunk blood was collected during sacrifice. Blood was centrifuged and plasma samples were analysed for beta-hydroxybutyrate using a colorimetric kit (Cayman, US). For measurement of brain ketones, sample preparation involved liquid/liquid extraction of 50 μl brain tissue supernatant (pH 2), and extract derivatization with MSTFA (silylation). Analysis of BHB was performed via GC/MS, int. Standard 13C2-3-OH-But, m/z 233 (3-OH-But), m/z 118 (13C2-3-OH-But), with a calibration of 2-24 μg/ml (water); LOQ: 2 μg/ml, LOD: 0.7 μg/ml.
Control rats received oral gavage of sunflower oil, as described above. MCT8 and MCT10 received oral gavage of octanoic acid or decanoic acid, respectively. Rats were sacrificed and trunk blood, portal vein blood and brain, pancreas and liver were collected as indicated.

| SMILES | plasma and brain β-HB (ketone) levels | plasma ketone levels (octanoic compared to decanoic acid) |
| --- | --- | --- |
| CCCCCCCCCC(=O)O [decanoic acid] | longer-lasting increase; also recorded: prolonged increase | – |
| CCCCCCCC(=O)O [octanoic acid] | more rapid increase; also recorded: rapid increase | increased more rapidly |
